Our source for the T/C values is PubChem BioAssay AID342 (DTP/NCI, 2004).

“And” between values parts separate entries of the source, which are not always exact repeats. Equal entries are not always repeated.

This assay has as its system Swiss mice, Sarcoma 180 sc, mean tumor weight T/C. Nature of the assay: NCI In Vivo Anticancer Drug Screen. Data for tumor model Sarcoma 180 (subcutaneous) in Swiss mice. The settings on record: endpoint: mean tumor weight, higher = larger tumour. The method, boiled down:
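Readout is the ratio of treated-group measurement to vehicle-control measurement (T/C), based on survival or tumor size in mice carrying transplanted tumors.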

The mark [1] stands for this setting: dose: 100.0 mg/kg/injection, schedule: Q01DX007 (ip), vehicle: saline.
Setting [2] is: dose: 222.0 mg/kg/injection, schedule: Q01DX007 (ip), vehicle: carboxymethylcellulose (CMC).
Where [3] appears, read: dose: 333.0 mg/kg/injection, schedule: Q01DX007 (ip), vehicle: carboxymethylcellulose (CMC).
Setting [4] is: dose: 500.0 mg/kg/injection, schedule: Q01DX007 (ip), vehicle: carboxymethylcellulose (CMC).
Setting [5] is: dose: 750.0 mg/kg/injection, schedule: Q01DX007 (ip), vehicle: carboxymethylcellulose (CMC).

For the molecule `CNNCc1ccc(C(=O)NC(N)=O)cc1`, the T/C – broadly, the ratio of treated to control – was 40 % of control under setting [1]; 38 % of control (dose: 125.0 mg/kg/injection, schedule: Q01DX007 (ip), vehicle: carboxymethylcellulose (CMC)); 42 % of control (dose: 148.0 mg/kg/injection, schedule: Q01DX007 (ip), vehicle: saline); 18 % of control (dose: 222.0 mg/kg/injection, schedule: Q01DX007 (ip), vehicle: saline); 30 % of control (dose: 250.0 mg/kg/injection, schedule: Q01DX007 (ip), vehicle: carboxymethylcellulose (CMC)); 37 % of control (dose: 333.0 mg/kg/injection, schedule: Q01DX007 (ip), vehicle: saline).

Turning to `Cc1ncc(CO)c(CNC(=O)N(C)N=O)c1O`, the T/C (dose: 62.0 mg/kg/injection, schedule: Q01DX007 (ip), vehicle: carboxymethylcellulose (CMC)) is 60 % of control.

Consider `CO[C@H]1C(=O)C[C@H]2[C@@H]3CC=C4C[C@@H](O)CC[C@]4(C)[C@H]3CC[C@]12C`, for which the T/C reads like this: (dose: 2.5 mg/kg/injection, schedule: Q01DX007 (sc), vehicle: steriod suspending solution) 92 % of control; (dose: 5.0 mg/kg/injection, schedule: Q01DX007 (sc), vehicle: steriod suspending solution) 101 % of control; (dose: 10.0 mg/kg/injection, schedule: Q01DX007 (sc), vehicle: steriod suspending solution) 89 % of control; (dose: 20.0 mg/kg/injection, schedule: Q01DX007 (sc), vehicle: steriod suspending solution) 94 % of control; (dose: 40.0 mg/kg/injection, schedule: Q01DX007 (sc), vehicle: steriod suspending solution) 93 % of control and 107 % of control; (dose: 80.0 mg/kg/injection, schedule: Q01DX007 (sc), vehicle: steriod suspending solution) 116 % of control and 117 % of control.

Regarding `O=C1c2ccccc2-c2c3c(cc4ccnc1c24)OCO3`, the T/C is, setting by setting: (dose: 45.0 mg/kg/injection, schedule: Q01DX007 (ip), vehicle: saline) 81 % of control; (dose: 65.0 mg/kg/injection, schedule: Q01DX007 (ip), vehicle: saline) 67 % of control; under setting [1], 75 % of control; (dose: 150.0 mg/kg/injection, schedule: Q01DX007 (ip), vehicle: saline) 47 % of control.

With `CC(N)C(=O)NC1(C(=O)O)CCCC1` (stereo not given), the T/C was 75 % of control (dose: 7.5 mg/kg/injection, schedule: Q#A X014 (ip), vehicle: carboxymethylcellulose (CMC)); 56 % of control (dose: 15.0 mg/kg/injection, schedule: Q#A X014 (ip), vehicle: carboxymethylcellulose (CMC)); 62 % of control (dose: 30.0 mg/kg/injection, schedule: Q#A X014 (ip), vehicle: carboxymethylcellulose (CMC)); 46 % of control (dose: 60.0 mg/kg/injection, schedule: Q#A X014 (ip), vehicle: carboxymethylcellulose (CMC)).

Take `O=C(NNC(=O)c1cccc2ccccc12)c1cc(Br)ccc1Br`: the T/C is, setting by setting: under setting [2], 53 % of control; under setting [3], 65 % of control; under setting [4], 26 % of control; under setting [5], 37 % of control.

For the molecule `O=C(Nc1ccc2c(c1)Cc1cccc(NC(=O)C(Cl)Cl)c1-2)C(Cl)Cl`, the T/C was 76 % of control under setting [2]; 46 % of control (dose: 222.0 mg/kg/injection, schedule: Q01DX007 (ip), vehicle: methylcellulose (MC)); 52 % of control (dose: 222.0 mg/kg/injection, schedule: Q01DX007 (ip), vehicle: other); 70 % of control and 90 % of control under setting [3]; 69 % of control (dose: 333.0 mg/kg/injection, schedule: Q01DX007 (ip), vehicle: methylcellulose (MC)); 81 % of control (dose: 333.0 mg/kg/injection, schedule: Q01DX007 (ip), vehicle: other). Besides, the T/C is 48 % of control and 58 % of control under setting [4]; 87 % of control (dose: 500.0 mg/kg/injection, schedule: Q01DX007 (ip), vehicle: methylcellulose (MC)); 122 % of control (dose: 500.0 mg/kg/injection, schedule: Q01DX007 (ip), vehicle: other); 48 % of control under setting [5]; 46 % of control (dose: 750.0 mg/kg/injection, schedule: Q01DX007 (ip), vehicle: methylcellulose (MC)); 89 % of control (dose: 750.0 mg/kg/injection, schedule: Q01DX007 (ip), vehicle: other).

As to `c1ccc(N2N=C3N(c4ccccc4)C2N3c2ccccc2)cc1`, the T/C reads like this: (dose: 15.0 mg/kg/injection, schedule: Q01DX007 (ip), vehicle: other) 114 % of control; (dose: 31.0 mg/kg/injection, schedule: Q01DX007 (ip), vehicle: other) 72 % of control.

In the case of `CCc1nc(N)nc(N)c1-c1ccc(Cl)c(Cl)c1.[Cl][Pd][Cl]`, the T/C by setting is: (dose: 6.6 mg/kg/injection, schedule: Q01DX007 (ip), vehicle: carboxymethylcellulose (CMC)) 95 % of control; (dose: 8.0 mg/kg/injection, schedule: Q01DX007 (ip), vehicle: methylcellulose (MC)) 111 % of control; (dose: 10.0 mg/kg/injection, schedule: Q01DX007 (ip), vehicle: carboxymethylcellulose (CMC)) 49 % of control; (dose: 15.0 mg/kg/injection, schedule: Q01DX007 (ip), vehicle: carboxymethylcellulose (CMC)) 35 % of control; (dose: 15.0 mg/kg/injection, schedule: Q01DX007 (ip), vehicle: methylcellulose (MC)) 55 % of control; (dose: 22.5 mg/kg/injection, schedule: Q01DX007 (ip), vehicle: carboxymethylcellulose (CMC)) 34 % of control. Besides, where the note is “dose: 30.0 mg/kg/injection, schedule: Q01DX007 (ip), vehicle: methylcellulose (MC)”, the T/C is 51 % of control.

Regarding `O=C(O)c1[nH]c(=O)[nH]c(=O)c1F`, the T/C was 62 % of control (dose: 3.35 mg/kg/injection, schedule: Q#A X014 (ip), vehicle: methylcellulose (MC)); 49 % of control (dose: 5.0 mg/kg/injection, schedule: Q#A X014 (ip), vehicle: methylcellulose (MC)); 46 % of control (dose: 7.5 mg/kg/injection, schedule: Q#A X014 (ip), vehicle: methylcellulose (MC)); 22 % of control (dose: 11.25 mg/kg/injection, schedule: Q#A X014 (ip), vehicle: methylcellulose (MC)).
